Test results reported in patent publication US12016831B2, “Polidocanol for use as immunomodulating agent” (priority 2018, dated 2024).

Experiments:
Assay type in all cases: in vivo, human
[1] = test system: venous, reticular or capillary vessels of treated subjects; test: Clinical observation of treated subjects: venous functionality, sclerosing effect, side effects; conditions: for sclerosing effect (venous, reticular or capillary parietal damage): diluted solution according to the invention, intravenous
Procedure: It is administered parenterally via the intravenous route.
Moreover, its use, for at least 4 applications every two months, contributes in determining a higher overall well-being, associated with an anti-inflammatory activity and with the modulation of several molecular markers of the immune and endothelial system. This modulation in addition to ameliorating the venous system functionality, which is objectively observed in most of the treated subjects (95-98%) and results in a reduction of the limbs heaviness sensation and of orthostatic oedema and cellulitis, exert a systemic effects, often also accompanied by an improved skin trophism.
There is almost no evidence even of quite common reactions (0.1-1%), such as superficial thrombophlebitis, allergic dermatitis, hives, erythema, skin necrosis.
Therefore, a further aspect of the present invention is a composition comprising polidocanol in concentration below 0.1%, preferably of from 0.03 to 0.09% by weight, preferably of from 0.04 to 0.08%, preferably of 0.05%-0.06% in saline solution (0.9% w/V NaCl) for use as immunomodulating and anti-inflammatory agent.

subject with psoriasis = test: Skin rashes in a subject with psoriasis after a single treatment; conditions: pictures at T=0 and after 30 days (FIG. 3)
Procedure: FIG. 3. Treatment of peripheral venous insufficiency in a subject with psoriasis. The subject was treated with a single dose of diluted polidocanol 0.1%. Pictures were taken at T=0 (panel A) and after 30 days (panel B).

[2] = test system: patients suffering from venous insufficiency from minor to severe; test: Likert survey on the "inflammatory" state in treated subjects
Procedure: A commercially available polidocanol solution (Atossisclerol®) was diluted to 0.05% with a physiological saline solution. A 1.4% sodium bicarbonate solution was then added in order to obtain a final concentration of 0.06%. […] To the questions on the quality of life, 10 more specific questions were added in order to assess possible variations of the “inflammatory” state (n=100 patients) after the treatment. The survey was based on the indications of: “Evaluation by Likert-type scale 4-point (0-absent, 1-moderate, 2-severe and 3-very severe)” Elleuch et al. Adv Ther. 2016 September; 33(9):1536-49. […] The survey was tailored on the Likert scale and aimed at evaluating the reduction of a number of symptoms related to chronic phlogosis, such as arthrosic or arthritis manifestations (both generic and autoimmune) with particular reference to articular mobility and pain, in subjects not suffering from full-blown diseases and apparently normal. The answers were indexed according to a scale from 0 to 3 (or from 0 to 2). Table 1 summarizes the percent individuals reporting an improvement of 50% after 4 or 15 treatments according to the invention, by self-assessment according to the Liked scale described above, for each of the following sign or symptom: […]

[3] = % of patients, n=100, after at least 4-5 treatments
[4] = after several treatments (12-14)
[5] = compared to the previous year, n=100
[6] = up to 2 months after the treatment, n=100

Polidocanol [diluted polidocanol]
treated subjects in which ameliorated venous system functionality is objectively observed ([1]; at least 4 applications every two months): 95-98% | side effects ([1]; concentrations of the treatment according to the invention, vs traditional sclerotherapy): very limited to zero side effects | sclerosing effect (venous, reticular or capillary parietal damage) [1]: does not exert a sclerosing effect | sclerosing effect (venous, reticular or capillary parietal damage) ([1]; listed as polidocanol): non-sclerosing effect | polidocanol concentrations having a sclerosing effect on small calibre capillaries or reticular veins ([1]; human, in vivo): ≥ 0.12% | skin rashes in a subject with psoriasis (subject with psoriasis): improve visibly the skin rashes | 1. Articular mobility, % individuals reporting an improvement of 50% ([2]; 4 treatments, 100 individuals): 78% | 2. Reduction of pain, % individuals reporting improvement ([2]; 4 treatments, 100 individuals): 68% | 3. Reduction of symptoms, % individuals reporting improvement ([2]; 4 treatments, 100 individuals): 30% | 4. Skin trophism, % individuals reporting improvement ([2]; 4 treatments, 100 individuals): 87% | 5. Hair, % individuals reporting improvement ([2]; 4 treatments, 100 individuals): 90% | 6. Reduction of infections, % individuals reporting improvement ([2]; 4 treatments, 100 individuals): 70% | 7. Feeing of wellness, % individuals reporting improvement ([2]; 4 treatments, 100 individuals): 30% | 8. Feeling of lightness (lower limbs), % individuals reporting improvement ([2]; 4 treatments, 100 individuals): 70% | 9. Improvement of "cellulitis", % individuals reporting improvement ([2]; 4 treatments, 100 individuals): 54% | 10. Improvement of sleep-wake rythm, % individuals reporting improvement ([2]; 4 treatments, 100 individuals): 30% | Don't feel stopping treatment, % individuals ([2]; 4 treatments, 100 individuals): 26% | 1. Articular mobility, % individuals reporting an improvement of 50% ([2]; 15 treatments, 200 individuals): 90% | 2. Reduction of pain, % individuals reporting improvement ([2]; 15 treatments, 200 individuals): 82% | 3. Reduction of symptoms, % individuals reporting improvement ([2]; 15 treatments, 200 individuals): 60% | 4. Skin trophism, % individuals reporting improvement ([2]; 15 treatments, 200 individuals): 98% | 5. Hair, % individuals reporting improvement ([2]; 15 treatments, 200 individuals): 95% | 6. Reduction of infections, % individuals reporting improvement ([2]; 15 treatments, 200 individuals): 85% | 7. Feeing of wellness, % individuals reporting improvement ([2]; 15 treatments, 200 individuals): 70% | 8. Feeling of lightness (lower limbs), % individuals reporting improvement ([2]; 15 treatments, 200 individuals): 98% | 9. Improvement of "cellulitis", % individuals reporting improvement ([2]; 15 treatments, 200 individuals): 86% | 10. Improvement of sleep-wake rythm, % individuals reporting improvement ([2]; 15 treatments, 200 individuals): 56% | Don't feel stopping treatment, % individuals ([2]; 15 treatments, 200 individuals): 56% | Feeling of lightness in the lower limbs, 0: no variations ([2]; % of patients, n=100): 2% | Feeling of lightness in the lower limbs, 1: lighter limbs ([2]; % of patients, n=100): 70% | Feeling of lightness in the lower limbs, 2: lighter limbs and no oedema in the evenings ([2]; % of patients, n=100): 28% | Improvement of "cellulitis", 1: lighter limbs ([2]; % of patients, n=100): 54% | Improvement of "cellulitis", 2: lighter limbs and no oedema in the evenings ([2]; % of patients, n=100): 36% | Improvement of skin trophism, 0: no variations ([2]; % of patients, n=100): 5% | Improvement of the hair trophism, results positive ([2]; % of patients, n=100): 90% | Improvement of the sleep-wake rhythm, 0: no variations ([2]; % of patients, n=100): 63% | Improvement of the sleep-wake rhythm, 1: I don't know: maybe ([2]; % of patients, n=100): 30% | Improvement of the sleep-wake rhythm, 2: I'm sleeping better and wake-up more rested ([2]; % of patients, n=100): 7% | Improvement of the so-called "cellulitis", 0: no variations ([2]; % of patients, n=100): 10% | Reduction of pain related to chronic inflammatory events, 0: no variations ([2]; % of patients, n=100): 20% | Reduction of pain, 1: 20% reduction of pain-related symptoms ([2]; % of patients, n=100): 12% | Reduction of pain, 2: 50% reduction of pain-related symptoms ([2]; % of patients, n=100): 68% | Reduction of pain, 3: 70% reduction of pain-related symptoms ([2]; % of patients, n=100): 0% | Skin trophism, 1: slight improvement of the skin elasticity and of the trophism at the touch in the lower limbs ([2]; % of patients, n=100): 87% | Skin trophism, 2: slight improvement of the skin elasticity and of the trophism at the touch in the whole body ([2]; % of patients, n=100): 60% | Skin trophism, 3: improvement extended to the skin of the face ([2]; % of patients, n=100): 16% | Articular mobility, 0: no variations [2, 3]: 13% | Articular mobility, 1: 20% mobility improvement [2, 3]: 7% | Articular mobility, 2: 50% mobility improvement [2, 3]: 78% | Articular mobility, 3: 70% mobility improvement [2, 3]: 2% | cases with improved skin elasticity and smoother skin also in the face [2, 4]: 16% | cases with improved skin elasticity and smoother skin in general [2, 4]: 60% | Reduction of infective events, 0: no variations [2, 5]: 18% | Reduction of infective events, 1: maybe less infective events [2, 5]: 12% | Reduction of infective events, 2: definitely significant reduction [2, 5]: 70% | Reduction of symptoms, 1: 20% attenuation of manifestations related to skin and articular mobility ([2]; number of patients, n=12): 5 N. | Reduction of symptoms, 2: 50% attenuation of manifestations related to skin and articular mobility ([2]; number of patients, n=12): 4 N. | Reduction of symptoms, 3: 70% attenuation of manifestations related to skin and articular mobility ([2]; number of patients, n=12): 1 N. | Reduction of symptoms of chronic degenerative pathologies of immune and inflammatory genesis, 0: no variations ([2]; number of patients, n=12 (e.g. psoriasis, rheumatoid arthritis)): 2 N. | Feeling of well-being, 0: no variations [2, 6]: 12% | Feeling of well-being, 1: I feel a bit better but I don't know [2, 6]: 32% | Feeling of well-being, 2: I feel a bit better in the sense that I have a feeling of well-being [2, 6]: 30% | Feeling of well-being, 3: life without the treatment is not the same, I feel the need to undergo treatment [2, 6]: 26%
